In one experiment the target is T1, IGF-1R (Homo sapiens, UniProt P08069).
T1 construct: purchased Upstate Co. 14-465
Description: IGF-1R inhibitory activity (kinase reaction, time-resolved fluoroimmunoassay). As to conditions: test compound 10 μmol/L. Format: biochemical. The essentials: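 Compounds were tested at a single 10 μmol/L concentration. Each was incubated with recombinant IGF-1R (200 μg/L), 10 mmol/L ATP, MgCl2/MnCl2 and Na3VO4 (pH 7.5) on immobilized poly(Glu-Tyr) peptide for 30 min at 24° C. Eu-anti-phosphotyrosine time-resolved fluorescence (340/615 nm) gave relative activity against no-compound and no-enzyme wells, reported as % inhibition.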

A further experiment concerns NCI-H929. Put plainly: Cytostatic activity on human multiple myeloma cell line NCI-H929 (WST-1). Format: cell-based. Conditions: Homo sapiens, NCI-H929, 72 h; for inhibition at 1 µM: read-out: cytostatic rate (%) H929 (1 μmol/L); for inhibition at 10 µM: 10 μmol/L, read-out: cytostatic rate (%) H929 (10 μmol/L). The method, boiled down: (§1)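 Cytostatic rate is 100 minus % growth relative to DMSO-only wells (100%) and blank wells (0%), read by WST-1 absorbance at 450/690 nm after 2 h. Compound at 1 or 10 μmol/L final was applied for 72 h at 37 °C to cells seeded 24 h earlier.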

The test system of another experiment is KMS-11. Put plainly: Cytostatic activity on human multiple myeloma cell line KMS-11 (WST-1). Format: cell-based. Conditions: Homo sapiens, KMS-11, 72 h; for inhibition at 1 µM: read-out: cytostatic rate (%) KMS-11 (1 μmol/L); for inhibition at 10 µM: 10 μmol/L, read-out: cytostatic rate (%) KMS-11 (10 μmol/L). The essentials: as §1
On the technique in general: Formazan colour is commonly taken as a measure of viable cells.

[1] abbreviates: IGF-1R active recombinant enzyme.
[2] abbreviates: NCI-H929 cells, test compound 1 μmol/L, WST-1.
Setting [3] is: KMS-11 cells, test compound 1 μmol/L, WST-1.

Each structure is given as a SMILES string. Counter-ions that a name gives are not always drawn. Like-named read-outs stand apart in the source and are kept apart here.

T1 sequence (P08069 959-1367 limits assumed): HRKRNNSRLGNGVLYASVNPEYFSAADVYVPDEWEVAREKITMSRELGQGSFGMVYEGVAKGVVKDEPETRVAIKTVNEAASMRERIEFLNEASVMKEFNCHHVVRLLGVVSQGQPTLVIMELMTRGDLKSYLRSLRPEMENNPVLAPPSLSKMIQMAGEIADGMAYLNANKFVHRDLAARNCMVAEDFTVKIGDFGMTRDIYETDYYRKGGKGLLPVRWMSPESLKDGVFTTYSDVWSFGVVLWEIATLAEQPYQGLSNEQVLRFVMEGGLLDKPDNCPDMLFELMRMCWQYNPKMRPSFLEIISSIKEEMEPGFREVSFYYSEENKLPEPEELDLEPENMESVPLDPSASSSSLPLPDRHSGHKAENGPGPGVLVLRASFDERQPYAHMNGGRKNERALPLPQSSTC

On to `Cc1ccsc1C(=O)Nc1cc(N2CCN(S(C)(=O)=O)CC2)ccc1/C=C/c1n[nH]c2ccccc12` [Compound 272, (E)-N-{2-[2-(1H-indazol-3-yl)vinyl]-5-(4-methanesulfonylpiperazin-1-yl)phenyl}-3-methylthiophene-2-carboxamide], for which the inhibition at 10 µM on IGF-1R (setting [1]) was found to be 101%. The inhibition at 1 µM turned out to be 120% in the experiment on NCI-H929 (1 μmol/L, 72 hours) and 135% with KMS-11 (1 μmol/L, 72 hours).
Take `CN(CCO)c1ccc(/C=C/c2n[nH]c3ccccc23)c(NC(=O)c2cccn2C)c1` [Compound 305, (E)-N-{5-[N-(2-hydroxyethyl)methylamino]-2-[2-(1H-indazol-3-yl)vinyl]phenyl}-1-methyl-1H-pyrrole-2-carboxamide]: on IGF-1R (setting [1]), the inhibition at 10 µM was 100%. In addition, the inhibition at 1 µM is 118% in the experiment with NCI-H929 (setting [2]) and 110% with KMS-11 (setting [3]).
Take `CCN(CC)CCNC(=O)c1ccc(/C=C/c2n[nH]c3ccccc23)c(NC(=O)c2sccc2C)c1` [Compound 230, (E)-N-{5-(2-diethylaminoethylcarbamoyl)-2-[2-(1H-indazol-3-yl)vinyl]phenyl}-3-methylthiophene-2-carboxamide hydrochloride]: the inhibition at 10 µM at IGF-1R (setting [1]) is 98.9%. For the same compound, the inhibition at 1 µM in the experiment on NCI-H929 (1 μmol/L, 72 hours) was 124%; with KMS-11 (1 μmol/L, 72 hours), 93.8%.
For the compound `COC1CCN(C(=O)c2ccc(/C=C/c3n[nH]c4ccccc34)c(NC(=O)c3sccc3C)c2)CC1` [Compound 120, (E)-N-{2-[2-(1H-indazol-3-yl)vinyl]-5-(4-methoxypiperidin-1-ylcarbonyl)phenyl}-3-methylthiophene-2-carboxamide], the inhibition at 10 µM worked out at 97.5% on IGF-1R, 116% in the experiment with NCI-H929 (72 hours) and 114% in the experiment on KMS-11 (72 hours).
`CN(C)c1cccc(C(=O)Nc2ccccc2/C=C/c2n[nH]c3ccccc23)c1` [Compound 27, (E)-3-dimethylamino-N-{2-[2-(1H-indazol-3-yl)vinyl]phenyl}benzamide]: the inhibition at 10 µM on IGF-1R (setting [1]) stood at 99.3%; in the experiment on NCI-H929 (72 hours) it was 119%; in the experiment on KMS-11 (72 hours), 114%.
Regarding `CC(=O)Nc1ccc(C(=O)Nc2ccccc2/C=C/c2n[nH]c3ccccc23)s1` [Compound 68, (E)-5-acetylamino-N-{2-[2-(1H-indazol-3-yl)vinyl]phenyl}thiophene-2-carboxamide], the inhibition at 10 µM at IGF-1R (setting [1]) came to 97.4%; with NCI-H929 (72 hours), 114%; with KMS-11 (72 hours) it was 112%.
For the compound `CCN(CCO)CCCOc1ccc(/C=C/c2n[nH]c3ccccc23)c(NC(=O)c2sccc2C)c1OC` [Compound 339, (E)-N-{3-{3-[N-ethyl(2-hydroxyethyl)amino]propoxy}-6-[2-(1H-indazol-3-yl)vinyl]-2-methoxyphenyl}-3-methylthiophene-2-carboxamide], the inhibition at 10 µM at IGF-1R (setting [1]) was 104%. The results for the inhibition at 1 µM with NCI-H929 (setting [2]) and in the experiment on KMS-11 (setting [3]) were 119% and 118%, respectively.
Regarding `COC(=O)c1c[nH]c(-c2ccccc2/C=C/c2n[nH]c3ccccc23)n1` [Compound 195, (E)-2-{2-[2-(1H-indazol-3-yl)vinyl]phenyl}-3H-imidazole-4-carboxylic acid methyl ester], the inhibition at 10 µM on IGF-1R (setting [1]) came out at 100%; with NCI-H929 (72 hours), 111%; in the experiment with KMS-11 (72 hours), 97.7%.
On the same counts, the results for `CN(C)c1ccc(C(=O)Nc2ccccc2/C=C/c2n[nH]c3ccccc23)cc1` [Compound 17, (E)-4-dimethylamino-N-{2-[2-(1H-indazol-3-yl)vinyl]phenyl}benzamide] are 98.3%, 115% and 127%.
On to `Cc1ccsc1C(=O)Nc1cc(C(=O)N2CCC(O)CC2)ccc1/C=C/c1n[nH]c2ccccc12` [Compound 219, (E)-N-{2-[2-(1H-indazol-3-yl)vinyl]-5-(4-hydroxypiperidin-1-ylcarbonyl)phenyl}-3-methylthiophene-2-carboxamide hydrochloride], for which, at IGF-1R (setting [1]), the inhibition at 10 µM worked out at 99.4%. Besides, the inhibition at 1 µM in the experiment with NCI-H929 (1 μmol/L, 72 hours) is 111%; in the experiment on KMS-11 (1 μmol/L, 72 hours) it was 108%.
Take `O=C(Nc1nncs1)c1ccccc1/C=C/c1n[nH]c2ccccc12` [Compound 145, (E)-2-[2-(1H-indazol-3-yl)vinyl]-N-([1,3,4]thiadiazol-2-yl)benzamide]: the results for the inhibition at 10 µM at IGF-1R (setting [1]), with NCI-H929 (72 hours) and with KMS-11 (72 hours) were 93.4%, 126% and 116%, respectively.
Turning to `OCCOc1ccccc1/C=C/c1n[nH]c2ccccc12` [Compound 134, (E)-2-{2-[2-(1H-indazol-3-yl)vinyl]phenoxy}ethanol], the inhibition at 10 µM is 93.4% on IGF-1R (setting [1]), 92.8% in the experiment on NCI-H929 (72 hours) and 52.5% in the experiment on KMS-11 (72 hours).
Consider `C(=C\c1n[nH]c2ccccc12)/c1ccccc1OCCc1ccccc1` [Compound 140, (E)-3-{2-[2-(2-phenylethyloxy)phenyl]vinyl}-1H-indazole], for which the inhibition at 10 µM came out at 92.1% on IGF-1R (setting [1]), 104% in the experiment on NCI-H929 (72 hours) and 58.9% in the experiment with KMS-11 (72 hours).
In the case of `O=C(Nc1ccccc1/C=C/c1n[nH]c2ccccc12)c1cccnc1` [Compound 6, (E)-N-{2-[2-(1H-indazol-3-yl)vinyl]phenyl}nicotinamide], the inhibition at 10 µM turned out to be 97.8% at IGF-1R (setting [1]), 115% in the experiment with NCI-H929 (72 hours) and 120% in the experiment on KMS-11 (72 hours).
Take `Cc1ccsc1C(=O)Nc1cc(C(=O)NCCN(C)C)ccc1/C=C/c1n[nH]c2ccccc12` [Compound 229, (E)-N-{5-[2-(dimethylamino)ethylcarbamoyl]-2-[2-(1H-indazol-3-yl)vinyl]phenyl}-3-methylthiophene-2-carboxamide hydrochloride]: the inhibition at 10 µM at IGF-1R (setting [1]) came to 99.3%. The inhibition at 1 µM with NCI-H929 (1 μmol/L, 72 hours) worked out at 121%; in the experiment with KMS-11 (1 μmol/L, 72 hours), 66.8%.
Take `O=C(Nc1ccccc1)c1ccccc1/C=C/c1n[nH]c2ccccc12` [Compound 47, (E)-N-phenyl-2-[2-(1H-indazol-3-yl)vinyl]benzamide]: the inhibition at 10 µM on IGF-1R (setting [1]) is 90.1%; in the experiment with NCI-H929 (72 hours), 100%; with KMS-11 (72 hours), 92.1%.
On to `COCCN1CCN(Cc2ccc(/C=C/c3n[nH]c4ccccc34)c(NC(=O)c3sccc3C)c2)CC1` [Compound 271, (E)-N-{2-[2-(1H-indazol-3-yl)vinyl]-5-[4-(2-methoxyethyl)piperazin-1-ylmethyl]phenyl}-3-methylthiophene-2-carboxamide], for which the inhibition at 10 µM at IGF-1R (setting [1]) came to 102%. Besides, the inhibition at 1 µM with NCI-H929 (1 μmol/L, 72 hours) is 119%; in the experiment on KMS-11 (1 μmol/L, 72 hours), 123%.
Turning to `O=C(Nc1ccccc1/C=C/c1n[nH]c2ccccc12)C1CCCO1` (stereo not drawn) [Compound 32, (E)-N-{2-[2-(1H-indazol-3-yl)vinyl]phenyl}tetrahydrofuran-2-carboxamide], the inhibition at 10 µM was determined as 98.6% at IGF-1R (setting [1]), 113% in the experiment with NCI-H929 (72 hours) and 126% in the experiment with KMS-11 (72 hours).
Turning to `Cc1ncsc1C(=O)Nc1ccccc1/C=C/c1n[nH]c2ccccc12` [Compound 174, (E)-N-{2-[2-(1H-indazol-3-yl)vinyl]phenyl}-4-methylthiazole-5-carboxamide], the inhibition at 10 µM at IGF-1R (setting [1]) is 103%; with NCI-H929 (72 hours), 109%; with KMS-11 (72 hours), 82.6%.
As to `Nc1ccc2c(c1)C(=O)N(c1ccccc1/C=C/c1n[nH]c3ccccc13)C2=O` [Compound 193, (E)-5-amino-2-{2-[2-(1H-indazol-3-yl)vinyl]phenyl}isoindole-1,3-dione], the inhibition at 10 µM on IGF-1R (setting [1]) amounted to 100%; in the experiment on NCI-H929 (72 hours) it was 124%; in the experiment with KMS-11 (72 hours), 167%.
For `Cc1ccsc1C(=O)Nc1cc(C(=O)N2C[C@@H](C)O[C@@H](C)C2)ccc1/C=C/c1n[nH]c2ccccc12` [Compound 223, (E)-N-{2-[2-(1H-indazol-3-yl)vinyl]-5-(cis-2,6-dimethylmorpholin-4-ylcarbonyl)phenyl}-3-methylthiophene-2-carboxamide hydrochloride], at IGF-1R (setting [1]), the inhibition at 10 µM is 101%. The inhibition at 1 µM was 119% in the experiment with NCI-H929 (1 μmol/L, 72 hours) and 120% with KMS-11 (1 μmol/L, 72 hours).
With `COc1ccccc1C(=O)Nc1ccccc1/C=C/c1n[nH]c2ccccc12` [Compound 20, (E)-N-{2-[2-(1H-indazol-3-yl)vinyl]phenyl}-2-methoxybenzamide], the inhibition at 10 µM on IGF-1R (setting [1]) came out at 97.3%; in the experiment with NCI-H929 (72 hours) it was 130%; with KMS-11 (72 hours), 107%.
As to `Cc1ccsc1C(=O)Nc1cc(CN2CC[C@@H](O)C2)ccc1/C=C/c1n[nH]c2ccccc12` [Compound 330, (R)-(E)-N-{5-(3-hydroxypyrrolidin-1-ylmethyl)-2-[2-(1H-indazol-3-yl)vinyl]phenyl}-3-methylthiophene-2-carboxamide], the inhibition at 10 µM on IGF-1R (setting [1]) is 102%. The values for the inhibition at 1 µM in the experiment on NCI-H929 (setting [2]) and with KMS-11 (setting [3]) were 131% and 112%, respectively.
For the compound `Cc1ccsc1C(=O)Nc1cc(CN2CCN(CCCO)CC2)ccc1/C=C/c1n[nH]c2ccccc12` [Compound 277, (E)-N-{5-[4-(3-hydroxypropyl)piperazin-1-ylmethyl]-2-[2-(1H-indazol-3-yl)vinyl]phenyl}-3-methylthiophene-2-carboxamide], at IGF-1R (setting [1]), the inhibition at 10 µM came to 99.5%. Further, the inhibition at 1 µM in the experiment with NCI-H929 (1 μmol/L, 72 hours) is 119%; with KMS-11 (1 μmol/L, 72 hours), 107%.

(Values after patent US7605272B2, “IGF-1R inhibitor” (Kyowa Hakko Kirin Co., Ltd., priority 2005, dated 2009).)
